Experimental findings from ChEMBL document CHEMBL1201862, “PubChem BioAssay data set” (2004) are described below.

For test [1], the target named is T1, RNA-binding protein pos-1 (Caenorhabditis elegans, UniProt G5EF15).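 Note: purified POS-1 fused to maltose binding protein made in E. coli; potency of compounds blocking POS-1 binding to fluorescent RNA.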
T1 sequence (G5EF15 whole entry): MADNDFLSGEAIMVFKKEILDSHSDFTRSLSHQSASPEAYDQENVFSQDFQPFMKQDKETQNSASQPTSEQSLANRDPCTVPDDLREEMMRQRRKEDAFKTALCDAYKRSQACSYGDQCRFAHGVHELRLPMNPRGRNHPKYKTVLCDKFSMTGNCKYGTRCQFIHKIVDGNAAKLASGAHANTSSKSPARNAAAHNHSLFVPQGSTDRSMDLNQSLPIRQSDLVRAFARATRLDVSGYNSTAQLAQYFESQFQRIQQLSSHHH
Briefly: disruptors of C. elegans POS-1 RNA interaction – biochemical, fluorescence polarization, dose response (AID 1964). (In general: Fluorescence polarisation rises when a labelled molecule tumbles more slowly, as on binding a larger partner.)

For test [2], the target named is T2, Zinc finger protein mex-5 (Caenorhabditis elegans, UniProt Q9XUB2).
T2 sequence (Q9XUB2 whole entry): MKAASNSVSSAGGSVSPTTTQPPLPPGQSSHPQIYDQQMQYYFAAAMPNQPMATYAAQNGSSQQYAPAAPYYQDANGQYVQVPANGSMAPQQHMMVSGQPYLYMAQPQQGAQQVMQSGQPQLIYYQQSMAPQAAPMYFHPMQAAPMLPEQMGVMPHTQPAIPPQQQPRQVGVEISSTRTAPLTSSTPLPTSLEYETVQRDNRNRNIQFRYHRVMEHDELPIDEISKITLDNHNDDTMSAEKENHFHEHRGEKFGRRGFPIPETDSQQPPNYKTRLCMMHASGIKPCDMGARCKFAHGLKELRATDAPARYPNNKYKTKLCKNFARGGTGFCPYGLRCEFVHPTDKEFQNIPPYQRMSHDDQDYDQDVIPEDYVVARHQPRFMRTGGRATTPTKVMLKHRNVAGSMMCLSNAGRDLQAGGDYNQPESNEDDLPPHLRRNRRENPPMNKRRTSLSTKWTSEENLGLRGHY
Put plainly: potency of MEX-5 RNA-binding blockers – biochemical, C. elegans, fluorescence polarization, dose response (AID 1960).

For test [3], the target named is Induced myeloid leukemia cell differentiation protein Mcl-1 (Homo sapiens, UniProt Q07820). Type of test: functional.
Sequence of Induced myeloid leukemia cell differentiation protein Mcl-1 (Q07820 whole entry): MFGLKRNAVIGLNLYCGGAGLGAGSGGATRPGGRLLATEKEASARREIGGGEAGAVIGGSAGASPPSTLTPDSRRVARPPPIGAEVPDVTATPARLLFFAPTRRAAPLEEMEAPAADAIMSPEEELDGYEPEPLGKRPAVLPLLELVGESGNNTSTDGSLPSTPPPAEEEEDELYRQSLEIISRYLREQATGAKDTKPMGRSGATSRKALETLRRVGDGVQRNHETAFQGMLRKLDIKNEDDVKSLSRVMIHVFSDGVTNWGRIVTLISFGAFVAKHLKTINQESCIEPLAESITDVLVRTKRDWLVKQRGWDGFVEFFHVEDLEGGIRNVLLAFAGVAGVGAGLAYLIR
The test system of test [4] is HeLa. Put plainly: viability loss in HeLa cells – cell-based, 24 h, cherry-picked samples, cytotoxicity control, dose response (AID 504726).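 Note: potency for cytotoxicity as loss of luminescence signal.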 The class given is functional. Conditions: Homo sapiens.
The target of test [5] is Troponin, cardiac muscle (Homo sapiens, UniProt P19429+P45379+P63316). Put plainly: compounds desensitizing RTF to calcium – biochemical, fluorescence, cardiac regulated thin filaments, triplicate IC50, dose response (AID 504742). Type of test: protein-complex assay.
For test [6], the target named is T3, Endoribonuclease toxin MazF (Escherichia coli K-12, UniProt P0AE70).
T3 sequence (P0AE70 whole entry): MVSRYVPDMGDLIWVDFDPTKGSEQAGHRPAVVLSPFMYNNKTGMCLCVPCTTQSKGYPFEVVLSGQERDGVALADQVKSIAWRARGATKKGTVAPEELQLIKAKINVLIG
Briefly: substrate-only fluorescence increase artefacts – biochemical, single-stranded RNase substrate, counter-screen for MazEF activator project, dose response (AID 588502). Type of test: functional.

Test [7] has as its target Dual specificity tyrosine-phosphorylation-regulated kinase 1A (Rattus norvegicus, UniProt Q63470). Type of test: biochemical, Homo sapiens.
Test [8] deals with Polyadenylate-binding protein 1 (Homo sapiens, UniProt P11940). Put plainly: MLLE domain peptide-binding blockers, IC50 – biochemical, fluorescence polarization, FITC-PAM2 peptide, dose response (AID 602259). The class given is functional. As to conditions: read-out: IC50_Mean.
Sequence of Polyadenylate-binding protein 1 (P11940 whole entry, the tested form may be a part): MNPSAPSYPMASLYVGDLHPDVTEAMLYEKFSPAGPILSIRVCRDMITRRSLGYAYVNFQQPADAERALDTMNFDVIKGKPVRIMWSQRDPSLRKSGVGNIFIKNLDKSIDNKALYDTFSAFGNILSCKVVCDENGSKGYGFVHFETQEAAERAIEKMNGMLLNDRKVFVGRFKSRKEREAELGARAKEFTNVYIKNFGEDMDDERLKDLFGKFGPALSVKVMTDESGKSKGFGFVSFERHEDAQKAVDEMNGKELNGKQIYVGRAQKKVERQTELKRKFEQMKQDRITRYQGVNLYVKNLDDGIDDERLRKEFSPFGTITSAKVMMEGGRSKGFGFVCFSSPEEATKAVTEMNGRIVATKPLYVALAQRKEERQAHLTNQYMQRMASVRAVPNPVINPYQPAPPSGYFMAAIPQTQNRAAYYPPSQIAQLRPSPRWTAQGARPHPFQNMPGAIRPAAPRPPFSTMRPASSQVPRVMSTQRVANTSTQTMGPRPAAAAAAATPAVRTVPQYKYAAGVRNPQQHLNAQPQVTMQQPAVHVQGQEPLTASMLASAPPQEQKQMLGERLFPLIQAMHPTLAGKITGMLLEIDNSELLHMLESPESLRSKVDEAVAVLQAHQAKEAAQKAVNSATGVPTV
For test [9], the target named is T4, 1-phosphatidylinositol 4,5-bisphosphate phosphodiesterase gamma-1 (Homo sapiens, UniProt P19174).
T4 sequence (P19174 whole entry): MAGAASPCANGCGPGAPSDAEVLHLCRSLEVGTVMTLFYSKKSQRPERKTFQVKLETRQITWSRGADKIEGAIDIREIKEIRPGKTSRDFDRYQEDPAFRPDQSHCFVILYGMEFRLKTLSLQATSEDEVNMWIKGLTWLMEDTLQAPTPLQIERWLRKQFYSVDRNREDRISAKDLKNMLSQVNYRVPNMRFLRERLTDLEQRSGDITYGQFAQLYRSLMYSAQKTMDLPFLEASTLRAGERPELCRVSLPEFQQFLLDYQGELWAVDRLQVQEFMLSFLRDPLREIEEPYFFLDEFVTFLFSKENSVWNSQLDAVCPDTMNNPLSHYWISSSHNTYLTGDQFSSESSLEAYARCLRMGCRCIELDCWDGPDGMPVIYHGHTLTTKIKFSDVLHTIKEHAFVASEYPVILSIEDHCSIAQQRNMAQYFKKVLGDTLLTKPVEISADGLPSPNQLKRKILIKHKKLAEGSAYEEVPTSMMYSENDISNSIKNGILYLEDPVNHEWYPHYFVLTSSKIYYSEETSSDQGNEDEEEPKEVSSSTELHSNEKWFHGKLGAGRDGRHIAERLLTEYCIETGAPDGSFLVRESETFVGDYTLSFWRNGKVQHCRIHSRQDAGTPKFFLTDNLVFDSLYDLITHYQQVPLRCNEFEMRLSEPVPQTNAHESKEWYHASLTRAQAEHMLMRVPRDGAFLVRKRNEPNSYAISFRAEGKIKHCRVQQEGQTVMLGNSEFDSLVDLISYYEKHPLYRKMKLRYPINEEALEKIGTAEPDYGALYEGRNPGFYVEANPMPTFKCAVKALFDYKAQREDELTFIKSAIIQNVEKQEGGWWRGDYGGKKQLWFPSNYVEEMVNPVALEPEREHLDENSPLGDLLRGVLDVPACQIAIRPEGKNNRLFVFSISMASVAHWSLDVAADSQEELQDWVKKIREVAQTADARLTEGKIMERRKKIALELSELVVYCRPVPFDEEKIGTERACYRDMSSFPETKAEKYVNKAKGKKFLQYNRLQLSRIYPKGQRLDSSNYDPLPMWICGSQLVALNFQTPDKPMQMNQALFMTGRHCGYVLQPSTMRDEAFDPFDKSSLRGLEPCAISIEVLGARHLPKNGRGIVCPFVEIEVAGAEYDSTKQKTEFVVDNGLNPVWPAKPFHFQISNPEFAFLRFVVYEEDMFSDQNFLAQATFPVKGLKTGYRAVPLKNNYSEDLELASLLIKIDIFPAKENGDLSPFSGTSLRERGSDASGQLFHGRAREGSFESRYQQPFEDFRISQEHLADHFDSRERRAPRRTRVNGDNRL
Put plainly: Counterscreen for inhibitors of phospholipase C isozymes (PLC-B3): Fluorescence-based biochemical high throughput dose response assay to identify inhibitors of phospholipase C isozymes (PLC-gamma1). A general note: The purpose of a counterscreen is to sort out artefacts and off-target activity.

Calls of active or inactive are those of the source. Where only a bound is given, the exact number is not on record here.

`O=c1c(O)cccc2cc(O)c(O)c(O)c12` [PURPUROGALLIN]: the figures for the EC50 in [1], in test [2] and in [6] were 6.57 µM (active), 0.152 µM (active) and > 99 µM (inactive), respectively. Besides, the IC50 in test [3] was > 54 µM (active); in test [5], 3.62 µM (active); in [8], 47.9 µM (inactive); in test [9], 20.9 µM (inactive). The AC50 in test [4] was 103 µM (active); in test [7], 1.61 µM (active).

The term EC50 denotes the concentration at which the effect is half-maximal. The AC50 is the concentration at which the activity in the assay is half-maximal.
